Results reported in patent US20250042912A1, “NOVEL NON-FLUORINATED QUINOLONE COMPOUND AND USE THEREOF” (priority 2021, published 2025).
In brackets after ≈: the same amount, converted by molar mass.

Key:
[1] = tested on: Staphylococcus epidermidis ATCC 35983; assay: Minimum inhibitory concentration (MIC) assay, Staphylococcus epidermidis ATCC 35983; format: cell-based; settings: ATCC35983, aerobic culture 35+/-2°C, 16 to 20 hours, read with naked eyes
Protocol: On the day of the experiment, the compound in the flask was dissolved in 100% DMSO until the concentration of mother liquor was 0.4 mg/mL. If the mother liquor was not used on the same day, it was stored at −80° C. for future use.
The compound mother liquor and standard antibiotics were subjected to 2-fold gradient dilution with corresponding solvents on a 96-microwell plate (V-bottom) to obtain 100× working solutions (Well 1 to Well 7) in sequence. Among them, the concentrations of the compound were 400 μg/mL, 200 μg/mL, 100 μg/mL, 50 μg/mL, 25 μg/mL, 12.5 μg/mL, 6.25 μg/mL, and 3.125 μg/mL. 100% DMSO was used as growth control (Well 8). As such, the compound motherplate was obtained.
One day before the experiment, aerobic bacteria (Staphylococcus epidermidis) stored in a cryogenic tube at −80° C. were scribed on an MHA (Cation-adjusted Mueller-Hinton agar) plate. The aerobic bacteria were placed in a 35+/−2° C. incubator for 18-24 hours of aerobic cultivation.
On the day of the experiment, the plate was taken out, clones were picked from the plate and suspended in physiological saline. Then, the turbidity of the bacterial suspension (containing 1.0-2.0×10^8 CFU/mL) was adjusted to OD600=0.2 by a turbidity meter. Then, the adjusted bacterial suspension was diluted to an appropriate concentration with the assay culture medium: about 5×10^5 CFU/mL for aerobic bacteria, and about 1×10^6 CFU/mL for anaerobic bacteria. As such, the inoculating solution was obtained.
2 μl of 2-fold series dilution of 100× high-concentration working solution was transferred from a compound mother plate (prepared in step 1) to a round-bottom 96-well plate, and then 198 μL of bacterial inoculating solution (prepared in step 2) was added to each well to obtain an MIC assay plate. Therefore, the final assay concentrations of the compound were 4 μg/mL, 2 μg/mL, 1 μg/mL, 0.5 μg/mL, 0.25 μg/mL, 0.125 μg/mL, 0.06 μg/mL and 0.03 μg/mL. The total volume of each well on the assay plate was 200 μL: containing 1% DMSO, about 5×10^5 CFU/mL of aerobic bacteria and about 1×10^6 CFU/mL of anaerobic bacteria.
All assay plates for aerobic bacteria were aerobically cultured at 35+/−2° C. for 16 to 20 hours, and all assay plates for anaerobic bacteria were anaerobically cultured in an anaerobic incubator at 35+/−2° C. for 48 hours.

[2] = tested on: Propionibacterium acnes ATCC 6919; assay: Acne model in mice: ear bacterial load; format: in vivo
Protocol: Experimental strain: Propionibacterium acnes ATCC 6919 (Beijing Biobw Biotechnology Co., Ltd.) Experimental animals: Balb/C mice (Zhejiang Vital River Laboratory Animal Technology Co., Ltd.) Balb/C mice were grouped and numbered, and adaptively fed for one week. On the day of modeling, Propionibacterium acnes was taken, and OD600 was measured using a microplate reader. BH1 culture medium was diluted to OD600=1 (about 5×10^8 CFU/mL), centrifuged to discard supernatant, and the remaining culture was diluted to 1×10^8 CFU/mL with PBS. Once the molding began, the mice were anesthetized with a small animal anesthesia machine, the air flow and isoflurane content of the anesthesia machine were adjusted, and the mice were placed in an anesthesia induction chamber for anesthesia induction. After there were no obvious signs of activity, the mice were taken out and their toes were clamped with tweezers or hemostatic forceps for toe pinching reaction testing, if there was no retraction pain response, the surgery could be performed. The anesthetized mice were placed on a mice plate and fixed, the air flow or isoflurane content was adjusted to maintain anesthesia (isoflurane anesthesia induction content of 3% to 4%, anesthesia maintenance content of 1% to 2%, and air flow rate of 300 mL/min to 500 mL/min). […]

Structure (SMILES): CN(C)c1cc2c(cn1)-c1ccc3c(=O)c(C(=O)O)cn(C4CC4)c3c1COC2 [Compound 6]
- MIC [1]: 0.06 µg/mL (≈ 0.153 µM)
- Ear bacterial load Log10 CFU/Ear Mean ± SD ([2]; Balb/C mice, left ear homogenate, 48 hours after injection of Propionibacterium acnes, 15 μL applied at 4, 20, 28, 44 hours, drugs as hydrochloride): 5.53 ± 0.10 Log10 CFU/Ear
- bacterial loads in the left ears of mice after treatment ([2]; compared with acne model group, p<0.001, in words): significantly decreased
